Assay results: patent US20240269238A1, “Therapeutic Regimens and Methods for Reducing Body Weight in a Subject with Fatty Liver Disease using a GLP-1R and GCGR Agonist” (Spitfire Pharma LLC, priority 2022, published 2024)

Key:
Assay type in all cases: in vivo, human
[1] = Phase 1 12-week study in overweight/obese subjects (NCT0456124, Example 2): key pharmacodynamic endpoints
Protocol: To test the lipid-lowering effects of pemvidutide, an analysis of Phase I clinical trial (NCT0456124) data was carried out. The subjects with overweight/obesity (BMI 25-40 kg/m^2) were randomized at 1 site in Australia (NCT0456124). Subjects were randomized 4:1 pemvidutide:placebo, with placebos pooled. […] Lipoprotein and glycoprotein profiling covering 33 lipoprotein related parameters was performed by ^1H-NMR on fasting plasma samples obtained at Day −1 (baseline), Day 43, and Day 84 from the 34 subjects who completed NCT0456124. Lipidomic profiling covering 600 lipid species was performed by ultra-high performance liquid chromatography-mass spectrometry on fasting plasma samples obtained at Day −1 (baseline), Day 43, and Day 84 from the 34 subjects who completed NCT0456124. For the lipid profiling, plasma fractionation was performed either using methanol to extract fatty acyls, bile acids, steroids, and lyso-glycerophospholipids, or using a chloroform/methanol mix to extract glycerolipids, cholesteryl esters, sphingolipids, and glycerophospholipids. Lipid classification followed the classification system proposed by Fahy et al. (J. Lipid Res. 2005; 46:839-861) and the LIPID MAPS initiative (http://www.lipidmaps.org) (see FIG. 8).

[2] = Phase 1b 24-week NAFLD study (Example 3): body weight loss; conditions: for weight loss: Week 24
Source text: (§1) Provided herein is disclosure of a 12-week extension study of the study provided in Example 1, providing a 24-week a Phase 1b, randomized, double-blind, placebo-controlled study to assess the effects of pemvidutide (also termed herein as ALT-801), the safety of pemvidutide and effects on weight loss, hepatic fat fraction, anthropometric parameters, lipid metabolism, as well as inflammatory, fibrosis and other markers in diabetic and non-diabetic (type 2 diabetes) overweight and obese (BMI≥28.0 kg/m^2) subjects with NAFLD (defined as liver fat content (LFC) by MRI-PDFF ≥10%; absence of significant fibrosis, defined as FibroScan® LSM ≤10 kPa), alanine aminotransferase (ALT) and aspartate aminotransferase (AST) laboratory values of ≤75 IU/L and HbA1c <9.5. Men and women aged 18-65 years were studied. Diabetic subjects were defined as those that have undergone stable dose (≥3 months) metformin or SLGT-2 therapy and no use of insulin, sulfonylureas, DPP-4, GLP-1 treatment; Ninety-four (94) subjects were enrolled in the initial 12-week Phase 1b NAFLD trial and 83 subjects who completed were invited to receive a total of 12 additional weeks of blinded treatment. Of those subjects, 66 consented to rollover, of which 64 were eligible to participate.
The primary endpoint of this study was a reduction in liver fat content (LFC) by MRI-PDFF at Week 24 compared to Week 0 (zero). Key secondary endpoints include percent (%) weight loss at Week 24 compared to Week 0 (zero), and liver inflammation by alanine aminotransferase (ALT) levels and corrected T1 (cT1) imaging at Week 24 as compared to Week 0 (zero). Adverse events (AEs), including serious and severe AEs, AEs leading to discontinuation, GI tolerability, vital signs, and glycemic control including fasting glucose and HbA1c levels were also measured.

[3] = test system: alanine aminotransferase (ALT) and corrected T1 (cT1); assay: Phase 1b 24-week NAFLD study (Example 3): liver inflammation by ALT levels and cT1 imaging; conditions: all doses, week 24
Source text: as §1, with “Diabetic subjects were defined as those that have undergone stable dose (≥3 months) metformin or SLGT-2 therapy and no use of insulin, sulfonylureas, DPP-4, GLP-1 treatment; Ninety-four (94) subjects were enrolled in the initial 12-week Phase 1b NAFLD trial and 83 subjects who completed were invited to receive a total of 12 additional weeks of blinded treatment. Of those subjects, 66 consented to rollover, of which 64 were eligible to participate.” left out
The primary endpoint of this study was a reduction in liver fat content (LFC) by MRI-PDFF at Week 24 compared to Week 0 (zero). […] Adverse events (AEs), including serious and severe AEs, AEs leading to discontinuation, GI tolerability, vital signs, and glycemic control including fasting glucose and HbA1c levels were also measured. […]

CC[C@H](C)[C@H](NC(=O)[C@H](Cc1ccccc1)NC(=O)[C@H](CCC(=O)O)NC(=O)[C@@H]1CCCCNC(=O)CC[C@H](NC(=O)[C@H](CC(=O)O)NC(=O)[C@H](CC(C)C)NC(=O)[C@H](Cc2ccc(O)cc2)NC(=O)[C@H](CCCCN)NC(=O)[C@H](CO)NC(=O)[C@H](Cc2ccc(O)cc2)NC(=O)[C@H](CC(=O)O)NC(=O)[C@H](CO)NC(=O)[C@@H](NC(=O)[C@H](Cc2ccccc2)NC(=O)[C@@H](NC(=O)CNC(=O)[C@H](CCC(N)=O)NC(=O)C(C)(C)NC(=O)[C@@H](N)Cc2c[nH]cn2)[C@@H](C)O)[C@H](C)O)C(=O)N[C@@H](CCCCNC(=O)C2O[C@@H](OCCCCCCCCCCCCCCCCCC(=O)O)C(O)C(O)[C@@H]2O)C(=O)N[C@@H](C)C(=O)N[C@@H](C)C(=O)N1)C(=O)N[C@@H](CCC(N)=O)C(=O)N[C@@H](Cc1c[nH]c2ccccc12)C(=O)N[C@@H](CC(C)C)C(=O)N[C@@H](CC(C)C)C(=O)N[C@@H](CCC(N)=O)C(=O)N[C@H](C(N)=O)[C@@H](C)O (stereo partly drawn) [ALT-801, Pemvidutide]
Apoprotein B, change from baseline, mean ([1]; 1.2 mg weekly, 12 weeks): −45.4%
BMI, change from baseline, mean ([1]; 1.2 mg weekly, 12 weeks): −4.8%
Diastolic BP, change from baseline, mean ([1]; 1.2 mg weekly, 12 weeks): −4.7%
HDL cholesterol, change from baseline, mean ([1]; 1.2 mg weekly, 12 weeks): −16.7%
LDL cholesterol, change from baseline, mean ([1]; 1.2 mg weekly, 12 weeks): −18.4%
Systolic BP, change from baseline, mean ([1]; 1.2 mg weekly, 12 weeks): −10.2%
Total cholesterol, change from baseline, mean ([1]; 1.2 mg weekly, 12 weeks): −20.0%
Triglycerides, change from baseline, mean ([1]; 1.2 mg weekly, 12 weeks): −37.0%
Weight loss, change from baseline, mean ([1]; 1.2 mg weekly, 12 weeks (n = 7)): −4.9%
mean body weight loss, placebo adjusted ([1]; 1.8 mg dose level, 12 weeks): 8.7%
mean body weight loss ([1]; 1.8 mg dose level, 12 weeks of weekly treatment): 10.3%
subjects achieving at least 10% body weight loss ([1]; 1.8 mg group, week 12): over half
subjects losing at least 5% of body weight ([1]; 1.8 mg group, week 12): all subjects lost at least 5% of their body weight
Apoprotein B, change from baseline, mean ([1]; 1.8 mg weekly, 12 weeks): −23.4%
BMI, change from baseline, mean ([1]; 1.8 mg weekly, 12 weeks): −10.4%
Diastolic BP, change from baseline, mean ([1]; 1.8 mg weekly, 12 weeks): −7.1%
HDL cholesterol, change from baseline, mean ([1]; 1.8 mg weekly, 12 weeks): −30.3%
LDL cholesterol, change from baseline, mean ([1]; 1.8 mg weekly, 12 weeks): −25.6%
Systolic BP, change from baseline, mean ([1]; 1.8 mg weekly, 12 weeks): −12.5%
Total cholesterol, change from baseline, mean ([1]; 1.8 mg weekly, 12 weeks): −28.0%
Triglycerides, change from baseline, mean ([1]; 1.8 mg weekly, 12 weeks): −37.9%
Weight loss, change from baseline, mean ([1]; 1.8 mg weekly, 12 weeks (n = 9)): −10.3%
Apoprotein B, change from baseline, mean ([1]; 2.4 mg weekly, 12 weeks): −16.8%
BMI, change from baseline, mean ([1]; 2.4 mg weekly, 12 weeks): −7.0%
Diastolic BP, change from baseline, mean ([1]; 2.4 mg weekly, 12 weeks): −6.0%
HDL cholesterol, change from baseline, mean ([1]; 2.4 mg weekly, 12 weeks): −36.0%
LDL cholesterol, change from baseline, mean ([1]; 2.4 mg weekly, 12 weeks): −23.9%
Systolic BP, change from baseline, mean ([1]; 2.4 mg weekly, 12 weeks): −17.4%
Total cholesterol, change from baseline, mean ([1]; 2.4 mg weekly, 12 weeks): −27.7%
Triglycerides, change from baseline, mean ([1]; 2.4 mg weekly, 12 weeks): −29.2%
Weight loss, change from baseline, mean ([1]; 2.4 mg weekly, 12 weeks (n = 11)): −9.0%
weight loss (in words) ([2]; Week 24 compared to Week 12): continued weight loss
weight loss ([2]; diabetic subjects): 5.3%
weight loss ([2]; non-diabetic subjects): 7.2%
ALT levels [3]: robust reduction of ALT levels
cT1 response (80 ms reduction vs baseline) [3]: high rates of cT1 response
